Laboratory results published in US20260130395A1, “Water Dispersible Botanical Compositions” (Aquila Black Limited, priority 2021, published 2026).

Assay: Stability of cannabinoid compounds and Vitamin E components in Beverage 2 (AB Red) by LCMSMS
Assay type: physicochemical

For CCCCCc1cc(O)c2c(c1)OC(C)(C)[C@@H]1CCC(C)=C[C@@H]21 [D9 THC, delta-9-tetrahydrocannabinol, reference compound], the “stability over the entire period (in words)” value (AB Red stored at 8° C., 570 days) was “high degree of stability”, the “stability over the entire period (in words)” value (AB Red stored at 21-25° C., 570 days) was “high degree of stability” and the “Stability of Plant-Derived Cannabinoid Compounds in AB Red” value (“Stability … in AB Red” below) (stored at 8° C., 0 days) was 12.9 µg/mL. For the same molecule, the “Stability … in AB Red” value (stored at 8° C., 1 days) was 13.0 µg/mL, the “Stability … in AB Red” value (stored at 8° C., 2 days) was 13.0 µg/mL and the “Stability … in AB Red” value (stored at 8° C., 3 days) was 12.7 µg/mL. The “Stability … in AB Red” value (stored at 8° C., 5 days) was 13.0 µg/mL, the “Stability … in AB Red” value (stored at 8° C., 8 days) was 12.6 µg/mL and the “Stability … in AB Red” value (stored at 8° C., 9 days) was 12.7 µg/mL. The “Stability … in AB Red” value (stored at 8° C., 10 days) was 12.8 µg/mL, the “Stability … in AB Red” value (stored at 8° C., 11 days) was 12.8 µg/mL and the “Stability … in AB Red” value (stored at 8° C., 12 days) was 12.9 µg/mL. For the same molecule, the “Stability … in AB Red” value (stored at 8° C., 15 days) was 12.9 µg/mL, the “Stability … in AB Red” value (stored at 8° C., 16 days) was 12.7 µg/mL and the “Stability … in AB Red” value (stored at 8° C., 17 days) was 12.6 µg/mL. For the same molecule, the “Stability … in AB Red” value (stored at 8° C., 18 days) was 12.8 µg/mL, the “Stability … in AB Red” value (stored at 8° C., 19 days) was 12.7 µg/mL and the “Stability … in AB Red” value (stored at 8° C., 22 days) was 12.7 µg/mL. The “Stability … in AB Red” value (stored at 8° C., 23 days) was 12.9 µg/mL, the “Stability … in AB Red” value (stored at 8° C., 24 days) was 12.9 µg/mL and the “Stability … in AB Red” value (stored at 8° C., 25 days) was 12.9 µg/mL. For the same molecule, the “Stability … in AB Red” value (stored at 8° C., 26 days) was 12.7 µg/mL, the “Stability … in AB Red” value (stored at 8° C., 29 days) was 12.7 µg/mL and the “Stability … in AB Red” value (stored at 8° C., 30 days) was 12.9 µg/mL. The “Stability … in AB Red” value (stored at 8° C., 60 days) was 12.5 µg/mL, the “Stability … in AB Red” value (stored at 8° C., 90 days) was 13.0 µg/mL and the “Stability … in AB Red” value (stored at 8° C., 120 days) was 12.4 µg/mL. The “Stability … in AB Red” value (stored at 8° C., 150 days) was 12.8 µg/mL, the “Stability … in AB Red” value (stored at 8° C., 180 days) was 12.6 µg/mL and the “Stability … in AB Red” value (stored at 8° C., 210 days) was 12.3 µg/mL. For the same molecule, the “Stability … in AB Red” value (stored at 8° C., 240 days) was 12.4 µg/mL, the “Stability … in AB Red” value (stored at 8° C., 270 days) was 12.6 µg/mL and the “Stability … in AB Red” value (stored at 8° C., 300 days) was 12.4 µg/mL. For the same molecule, the “Stability … in AB Red” value (stored at 8° C., 330 days) was 12.7 µg/mL, the “Stability … in AB Red” value (stored at 8° C., 360 days) was 12.5 µg/mL and the “Stability … in AB Red” value (stored at 8° C., 390 days) was 12.4 µg/mL. The “Stability … in AB Red” value (stored at 8° C., 420 days) was 12.4 µg/mL, the “Stability … in AB Red” value (stored at 8° C., 450 days) was 12.4 µg/mL and the “Stability … in AB Red” value (stored at 8° C., 480 days) was 12.2 µg/mL. The “Stability … in AB Red” value (stored at 8° C., 510 days) was 12.0 µg/mL, the “Stability … in AB Red” value (stored at 8° C., 540 days) was 11.9 µg/mL and the “Stability … in AB Red” value (stored at 8° C., 570 days) was 11.8 µg/mL. For the same molecule, the “Stability … in AB Red” value (stored at 21-25° C., 0 days) was 12.9 µg/mL, the “Stability … in AB Red” value (stored at 21-25° C., 1 days) was 13.0 µg/mL and the “Stability … in AB Red” value (stored at 21-25° C., 2 days) was 13.0 µg/mL. The “Stability … in AB Red” value (stored at 21-25° C., 3 days) was 12.6 µg/mL, the “Stability … in AB Red” value (stored at 21-25° C., 5 days) was 12.4 µg/mL and the “Stability … in AB Red” value (stored at 21-25° C., 8 days) was 12.7 µg/mL. For the same molecule, the “Stability … in AB Red” value (stored at 21-25° C., 9 days) was 12.8 µg/mL, the “Stability … in AB Red” value (stored at 21-25° C., 10 days) was 12.5 µg/mL and the “Stability … in AB Red” value (stored at 21-25° C., 11 days) was 12.9 µg/mL. The “Stability … in AB Red” value (stored at 21-25° C., 12 days) was 13.0 µg/mL, the “Stability … in AB Red” value (stored at 21-25° C., 15 days) was 12.7 µg/mL and the “Stability … in AB Red” value (stored at 21-25° C., 16 days) was 12.4 µg/mL. For the same molecule, the “Stability … in AB Red” value (stored at 21-25° C., 17 days) was 12.9 µg/mL, the “Stability … in AB Red” value (stored at 21-25° C., 18 days) was 12.8 µg/mL and the “Stability … in AB Red” value (stored at 21-25° C., 19 days) was 12.8 µg/mL. The “Stability … in AB Red” value (stored at 21-25° C., 22 days) was 12.9 µg/mL, the “Stability … in AB Red” value (stored at 21-25° C., 23 days) was 12.9 µg/mL and the “Stability … in AB Red” value (stored at 21-25° C., 24 days) was 12.5 µg/mL. The “Stability … in AB Red” value (stored at 21-25° C., 25 days) was 12.5 µg/mL, the “Stability … in AB Red” value (stored at 21-25° C., 26 days) was 12.4 µg/mL and the “Stability … in AB Red” value (stored at 21-25° C., 29 days) was 12.7 µg/mL. For the same molecule, the “Stability … in AB Red” value (stored at 21-25° C., 30 days) was 12.4 µg/mL, the “Stability … in AB Red” value (stored at 21-25° C., 60 days) was 12.2 µg/mL and the “Stability … in AB Red” value (stored at 21-25° C., 90 days) was 12.8 µg/mL. For the same molecule, the “Stability … in AB Red” value (stored at 21-25° C., 120 days) was 12.4 µg/mL, the “Stability … in AB Red” value (stored at 21-25° C., 150 days) was 12.4 µg/mL and the “Stability … in AB Red” value (stored at 21-25° C., 180 days) was 12.8 µg/mL. The “Stability … in AB Red” value (stored at 21-25° C., 210 days) was 12.4 µg/mL, the “Stability … in AB Red” value (stored at 21-25° C., 240 days) was 12.5 µg/mL and the “Stability … in AB Red” value (stored at 21-25° C., 270 days) was 12.5 µg/mL. The “Stability … in AB Red” value (stored at 21-25° C., 300 days) was 12.4 µg/mL, the “Stability … in AB Red” value (stored at 21-25° C., 330 days) was 12.1 µg/mL and the “Stability … in AB Red” value (stored at 21-25° C., 360 days) was 12.6 µg/mL. The “Stability … in AB Red” value (stored at 21-25° C., 390 days) was 12.1 µg/mL, the “Stability … in AB Red” value (stored at 21-25° C., 420 days) was 12.2 µg/mL and the “Stability … in AB Red” value (stored at 21-25° C., 450 days) was 12.2 µg/mL. The “Stability … in AB Red” value (stored at 21-25° C., 480 days) was 11.8 µg/mL, the “Stability … in AB Red” value (stored at 21-25° C., 510 days) was 12.3 µg/mL and the “Stability … in AB Red” value (stored at 21-25° C., 540 days) was 12.2 µg/mL. The “Stability … in AB Red” value (stored at 21-25° C., 570 days) was 11.8 µg/mL.
